Publication PMC8739347 (Tropical Medicine and Health, 2022)

Experiments:
Assay in all cases: Antiviral activity assay in Vero E6 cells, qRT-PCR of supernatant
Type in all cases: cell-based
[1] = test system: SARS-CoV-2 Alpha variant (hCoV-19/Japan/QK002/2020); conditions: Severe acute respiratory syndrome coronavirus 2, Vero C1008, compound concentration (for 5-ALA/SFC the 5-ALA concentration, ratio 4:1)
[2] = test system: SARS-CoV-2 Beta variant (hCoV-19/Japan/TY8-612/2020); conditions: Severe acute respiratory syndrome coronavirus 2, Vero C1008, compound concentration (for 5-ALA/SFC the 5-ALA concentration, ratio 4:1)
[3] = test system: SARS-CoV-2 Gamma variant (hCoV-19/Japan/TY7-501/2020); conditions: for IC50: Severe acute respiratory syndrome coronavirus 2, Vero C1008, Gamma, compound concentration (for 5-ALA/SFC the 5-ALA concentration, ratio 4:1)
[4] = test system: SARS-CoV-2 Delta variant (hCoV-19/Japan/TY11-330-P1//2021); conditions: for IC50: Severe acute respiratory syndrome coronavirus 2, Vero C1008, Delta, compound concentration (for 5-ALA/SFC the 5-ALA concentration, ratio 4:1)

SMILES | IC50 [1] | IC50 [2] | viral inhibition [3] | IC50 [3] | viral inhibition [4] | IC50 [4]
NCC(=O)CCC(=O)O [5-ALA, 5-aminolevulinic acid] | 104 µM | 1590 µM | no viral inhibition | > 2000 µM | little viral inhibition | > 2000 µM
CCC(CC)COC(=O)[C@H](C)N[P@](=O)(OC[C@H]1O[C@@](C#N)(c2ccc3c(N)ncnn23)[C@H](O)[C@@H]1O)Oc1ccccc1 [remdesivir, Remdesivir] | 0.1 to 1 µM | 0.1 to 1 µM | – | 0.1 to 1 µM | – | 0.1 to 1 µM
